Assay [1] addresses T1, CD73 (Homo sapiens (Human), UniProt P21589). In kind it is biochemical. The settings on record: 1 mM NaH2PO4 in enzyme buffer, CD73 0.3 nM, AMP 15 uM.
Assay [2] concerns the target T1, CD73. The assay can be described thus: MDA-MB-231 Cell Based CD73 Activity Assay (DMEM). The settings on record: MDA-MB-231-GFP cells, DMEM medium with 10% human plasma, 200 uM AMP.

T1 sequence (P21589 27-574): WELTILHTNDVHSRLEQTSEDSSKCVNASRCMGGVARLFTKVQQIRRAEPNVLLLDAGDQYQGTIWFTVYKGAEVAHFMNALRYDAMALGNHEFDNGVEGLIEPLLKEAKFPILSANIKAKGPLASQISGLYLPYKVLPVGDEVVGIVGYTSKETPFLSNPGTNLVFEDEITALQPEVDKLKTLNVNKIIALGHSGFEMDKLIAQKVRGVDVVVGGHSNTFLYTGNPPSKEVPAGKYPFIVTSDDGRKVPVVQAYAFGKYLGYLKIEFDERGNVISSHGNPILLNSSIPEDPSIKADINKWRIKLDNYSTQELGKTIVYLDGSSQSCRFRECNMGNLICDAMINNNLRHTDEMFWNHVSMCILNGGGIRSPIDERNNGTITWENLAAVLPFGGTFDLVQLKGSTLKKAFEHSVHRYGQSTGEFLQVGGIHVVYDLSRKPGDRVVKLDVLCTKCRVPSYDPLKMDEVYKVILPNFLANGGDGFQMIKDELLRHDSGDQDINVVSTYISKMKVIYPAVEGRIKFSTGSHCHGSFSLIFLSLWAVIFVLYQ

One may read the IC50 as the concentration that inhibits the measured activity by half. High values mean a need for much substance, low ones inhibition by little substance. In general, EC50 refers to the concentration that produces a half-maximal response. `O=c1[nH]cc(-c2cc(N3CC(F)(F)C4(CC4)C3)c3nccn3n2)c(=O)[nH]1` [Example 83, 5-(8-(7,7-difluoro-5-azaspiro[2.4]heptan-5-yl)imidazo[1,2-b]pyridazin-6-yl)pyrimidine-2,4(1H,3H)-dione] came in with an IC50 against CD73 [1] of 1.47 nM. The EC50 on CD73 [2] came out at 6.65 nM.

`O=c1[nH]cc(-c2cc(N3CC(F)(F)C4(CC4)C3)c3ncnn3n2)c(=O)[nH]1` [Example 84, 5-(8-(7,7-difluoro-5-azaspiro[2.4]heptan-5-yl)-[1,2,4]triazolo[1,5-b]pyridazin-6-yl)pyrimidine-2,4(1H,3H)-dione] returned an IC50 against CD73 [1] of 1.1 nM. In addition, at CD73 [2], the EC50 turned out to be 6.56 nM.

As to `CC(C)n1ncc2ccc([C@H]3C[C@@H]3c3cc(-c4c[nH]c(=O)[nH]c4=O)nn4ccnc34)cc21` [Example 120, 5-(8-((1S,2S)-2-(1-isopropyl-1H-indazol-6-yl)cyclopropyl)imidazo[1,2-b]pyridazin-6-yl)pyrimidine-2,4(1H,3H)-dione], on CD73 [1], the half-maximal inhibitory concentration (IC50) stood at 0.85 nM. This compound also gave an EC50 at CD73 [2] of 0.85 nM.

The compound `O=c1[nH]cc(-c2cc([C@H]3C[C@@H]3c3ccc(OC(F)F)nc3)c3ncc(F)n3n2)c(=O)[nH]1` [Example 122, 5-(8-((1S,2S)-2-(6-(difluoromethoxy)pyridin-3-yl)cyclopropyl)-3-fluoroimidazo[1,2-b]pyridazin-6-yl)pyrimidine-2,4(1H,3H)-dione] had an IC50 against CD73 [1] of 2.39 nM. Also, a half-maximal response on CD73 [2] (EC50) required 11.1 nM.

The compound `O=c1[nH]cc(-c2cc([C@@H]3C[C@H]3c3ccc4cnn(CC(F)F)c4c3)c3nccn3n2)c(=O)[nH]1` [Example 124, 5-(8-((1R,2R)-2-(1-(2,2-difluoroethyl)-1H-indazol-6-yl)cyclopropyl)imidazo[1,2-b]pyridazin-6-yl)pyrimidine-2,4(1H,3H)-dione] had an IC50 on CD73 [1] of 2.6 nM. The same compound had an EC50 at CD73 [2] of 0.62 nM.

Consider `O=c1[nH]cc(-c2cc([C@H]3C[C@@H]3c3ccc4cnn(CC(F)F)c4c3)c3nccn3n2)c(=O)[nH]1` [Example 125, 5-(8-((1S,2S)-2-(1-(2,2-difluoroethyl)-1H-indazol-6-yl)cyclopropyl)imidazo[1,2-b]pyridazin-6-yl)pyrimidine-2,4(1H,3H)-dione], for which, on CD73 [1], the midpoint of inhibition, the IC50, lay at 0.71 nM. This compound had an EC50 at CD73 [2] of 0.17 nM.

Regarding `O=c1[nH]cc(-c2cc([C@H]3C[C@@H]3c3ccc4ccn(CC(F)(F)F)c4n3)c3nccn3n2)c(=O)[nH]1` [Example 126, 5-(8-((1S,2S)-2-(1-(2,2,2-trifluoroethyl)-1H-pyrrolo[2,3-b]pyridin-6-yl)cyclopropyl)imidazo[1,2-b]pyridazin-6-yl)pyrimidine-2,4(1H,3H)-dione], it took 1.13 nM to reach half-maximal inhibition against CD73 [1] (IC50). The EC50 on CD73 [2] came out at 0.46 nM.

Turning to `O=c1[nH]cc(-c2cc([C@H]3C[C@@H]3c3ccc4cnn(CC(F)F)c4c3F)c3nccn3n2)c(=O)[nH]1` [Example 129, 5-(8-((1S,2S)-2-(1-(2,2-difluoroethyl)-7-fluoro-1H-indazol-6-yl)cyclopropyl)imidazo[1,2-b]pyridazin-6-yl)pyrimidine-2,4(1H,3H)-dione], inhibition against CD73 [1] was half-maximal at 1.11 nM (IC50). For the same compound, the EC50 on CD73 [2] worked out at 0.3 nM.

`O=c1[nH]cc(-c2cc([C@H]3C[C@@H]3c3ccc4nc(C(F)(F)F)ccc4c3)c3nccn3n2)c(=O)[nH]1` [Example 131, 5-(8-((1S,2S)-2-(2-(trifluoromethyl)quinolin-6-yl)cyclopropyl)imidazo[1,2-b]pyridazin-6-yl)pyrimidine-2,4(1H,3H)-dione] had a half-inhibitory concentration (IC50) at CD73 [1] of 0.78 nM. Also, at CD73 [2], the EC50 turned out to be 6.1 nM.

With `O=c1[nH]cc(-c2cc([C@H]3C[C@@H]3c3ccc(OC(F)F)cn3)c3ncc(F)n3n2)c(=O)[nH]1` [Example 132, 5-(8-((1S,2S)-2-(5-(difluoromethoxy)pyridin-2-yl)cyclopropyl)-3-fluoroimidazo[1,2-b]pyridazin-6-yl)pyrimidine-2,4(1H,3H)-dione], at CD73 [1], the IC50 turned out to be 1.21 nM. In addition, a half-maximal response at CD73 [2] (EC50) required 19.4 nM.

Regarding `O=c1[nH]cc(-c2cc([C@H]3C[C@@H]3c3ccc4cnc(C(F)(F)F)cc4c3)c3nccn3n2)c(=O)[nH]1` [Example 133, 5-(8-((1S,2S)-2-(3-(trifluoromethyl)isoquinolin-6-yl)cyclopropyl)imidazo[1,2-b]pyridazin-6-yl)pyrimidine-2,4(1H,3H)-dione], the IC50 against CD73 [1] came out at 0.92 nM. Further, on CD73 [2], a half-maximal response (EC50) required 1.6 nM.

On CD73 [1], `O=c1[nH]cc(-c2cc([C@H]3C[C@@H]3c3cc(C(F)(F)F)c4ncccc4c3)c3ncc(F)n3n2)c(=O)[nH]1` [Example 134, 5-(3-fluoro-8-((1S,2S)-2-(8-(trifluoromethyl)quinolin-6-yl)cyclopropyl)imidazo[1,2-b]pyridazin-6-yl)pyrimidine-2,4(1H,3H)-dione] registered an IC50 of 1.17 nM. This compound displayed an EC50 on CD73 [2] of 22.7 nM.

The compound `O=c1[nH]cc(-c2cc([C@H]3C[C@@H]3c3cc(C(F)(F)F)c4ncccc4c3)c3nccn3n2)c(=O)[nH]1` [Example 135, 5-(8-((1S,2S)-2-(8-(trifluoromethyl)quinolin-6-yl)cyclopropyl)imidazo[1,2-b]pyridazin-6-yl)pyrimidine-2,4(1H,3H)-dione] showed an IC50 at CD73 [1] of 1.99 nM. The same compound registered a concentration for a half-maximal effect (EC50) at CD73 [2] of 44 nM.

Turning to `O=c1[nH]cc(-c2cc([C@H]3C[C@@H]3c3ccc(OC(F)F)cn3)c3nccn3n2)c(=O)[nH]1` [Example 137, 5-(8-((1S,2S)-2-(5-(difluoromethoxy)pyridin-2-yl)cyclopropyl)imidazo[1,2-b]pyridazin-6-yl)pyrimidine-2,4(1H,3H)-dione], the IC50 on CD73 [1] stood at 1.28 nM. In addition, the EC50 on CD73 [2] was found to be 4.68 nM.

Compound `O=c1[nH]cc(-c2cc([C@H]3C[C@@H]3c3ccc4c(C(F)(F)F)ccnc4c3)c3nccn3n2)c(=O)[nH]1` [Example 139, 5-(8-((1S,2S)-2-(4-(trifluoromethyl)quinolin-7-yl)cyclopropyl)imidazo[1,2-b]pyridazin-6-yl)pyrimidine-2,4(1H,3H)-dione] displayed a half-inhibitory concentration (IC50) against CD73 [1] of 4.55 nM. A half-maximal response at CD73 [2] (EC50) required 296 nM.

With `O=c1[nH]cc(-c2cc([C@H]3C[C@@H]3c3ccc(OC(F)F)nc3)c3nccn3n2)c(=O)[nH]1` [Example 140, 5-(8-((1S,2S)-2-(6-(difluoromethoxy)pyridin-3-yl)cyclopropyl)imidazo[1,2-b]pyridazin-6-yl)pyrimidine-2,4(1H,3H)-dione], the IC50 against CD73 [1] was 1.68 nM. In addition, a half-maximal response at CD73 [2] (EC50) required 5.25 nM.

Consider `O=c1[nH]cc(-c2cc([C@H]3C[C@@H]3c3ccc(C(F)(F)F)cn3)c3ncc(F)n3n2)c(=O)[nH]1` [Example 144, 5-(3-fluoro-8-((1S,2S)-2-(5-(trifluoromethyl)pyridin-2-yl)cyclopropyl)imidazo[1,2-b]pyridazin-6-yl)pyrimidine-2,4(1H,3H)-dione], for which inhibition against CD73 [1] was half-maximal at 2.3 nM (IC50). The same compound registered an EC50 on CD73 [2] of 6.17 nM.

Take `CC1(C)CN(c2cc(-c3c[nH]c(=O)[nH]c3=O)nn3cc(C4CC4)nc23)CC1(F)F` [Example 145, 5-(2-cyclopropyl-8-(3,3-difluoro-4,4-dimethylpyrrolidin-1-yl)imidazo[1,2-b]pyridazin-6-yl)pyrimidine-2,4(1H,3H)-dione]: the midpoint of inhibition against CD73 [1], the IC50, lay at 20.5 nM. On CD73 [2], this compound returned an EC50 of 41.7 nM.

On to `O=c1[nH]cc(-c2cc([C@H]3C[C@@H]3c3ccc(F)cc3F)c3nc(C4CC4)cn3n2)c(=O)[nH]1` [Example 146, 5-(2-cyclopropyl-8-((1S,2S)-2-(2,4-difluorophenyl)cyclopropyl)imidazo[1,2-b]pyridazin-6-yl)pyrimidine-2,4(1H,3H)-dione], for which, on CD73 [1], the IC50 was 6.12 nM. The compound also registered a 50% effective concentration (EC50) on CD73 [2] of 46.7 nM.

For `O=c1[nH]cc(-c2cc(N3CC(F)C4(CC4)C3)n3nccc3n2)c(=O)[nH]1` (stereo not shown) [Example 147, 5-(7-(7-fluoro-5-azaspiro[2.4]heptan-5-yl)pyrazolo[1,5-a]pyrimidin-5-yl)pyrimidine-2,4(1H,3H)-dione], on CD73 [1], the IC50 is 39 nM. At CD73 [2], this compound returned a concentration giving a half-maximal response (EC50) of 96.1 nM.

At CD73 [1], `O=c1[nH]cc(-c2cc(N3CC(F)C4(CC4)C3)c3ncc(F)n3n2)c(=O)[nH]1` (stereo not shown) [Example 148, 5-(3-fluoro-8-(7-fluoro-5-azaspiro[2.4]heptan-5-yl)imidazo[1,2-b]pyridazin-6-yl)pyrimidine-2,4(1H,3H)-dione] gave a 50% inhibitory concentration (IC50) of 8 nM. The compound also registered an EC50 at CD73 [2] of 17.9 nM.

As for `O=c1[nH]cc(-c2cc([C@H]3C[C@@H]3c3ccc(C(F)(F)F)cn3)c3nccn3n2)c(=O)[nH]1` [Example 150, 5-(8-((1S,2S)-2-(5-(trifluoromethyl)pyridin-2-yl)cyclopropyl)imidazo[1,2-b]pyridazin-6-yl)pyrimidine-2,4(1H,3H)-dione], the IC50 at CD73 [1] was determined as 1.93 nM. The compound also yielded a half-maximal effective concentration (EC50) at CD73 [2] of 4.79 nM.

For the compound `O=c1[nH]cc(-c2cc([C@H]3C[C@@H]3c3ccc(C(F)(F)F)nc3)c3nccn3n2)c(=O)[nH]1` [Example 153, 5-(8-((1S,2S)-2-(6-(trifluoromethyl)pyridin-3-yl)cyclopropyl)imidazo[1,2-b]pyridazin-6-yl)pyrimidine-2,4(1H,3H)-dione], the IC50 against CD73 [1] came out at 2.3 nM. Moreover, at CD73 [2], the EC50 was 8.85 nM.

On to `N#Cc1ccc([C@H]2C[C@@H]2c2cc(-c3c[nH]c(=O)[nH]c3=O)nn3c(F)cnc23)cc1` [Example 158, 4-((1S,2S)-2-(6-(2,4-dioxo-1,2,3,4-tetrahydropyrimidin-5-yl)-3-fluoroimidazo[1,2-b]pyridazin-8-yl)cyclopropyl)benzonitrile], for which, on CD73 [1], the IC50 is 0.55 nM. The same compound showed an EC50 on CD73 [2] of 2.52 nM.

The compound `O=c1[nH]cc(-c2cc([C@H]3C[C@@H]3c3ccccn3)c3nccn3n2)c(=O)[nH]1` [Example 159, 5-(8-((1S,2S)-2-(pyridin-2-yl)cyclopropyl)imidazo[1,2-b]pyridazin-6-yl)pyrimidine-2,4(1H,3H)-dione] displayed an IC50 at CD73 [1] of 1.76 nM. Besides, the 50% effective concentration (EC50) on CD73 [2] turned out to be 2.62 nM.

`O=c1[nH]cc(-c2cc([C@H]3C[C@@H]3c3cccnc3)c3nccn3n2)c(=O)[nH]1` [Example 162, 5-(8-((1S,2S)-2-(pyridin-3-yl)cyclopropyl)imidazo[1,2-b]pyridazin-6-yl)pyrimidine-2,4(1H,3H)-dione] gave an IC50 at CD73 [1] of 1.64 nM. This compound also gave an EC50 on CD73 [2] of 4.41 nM.

Values taken from patent US20240043427A1 (Gilead Sciences, Inc., priority 2020, published 2024).
